Data: PMC10702309 (ACS Omega, 2023)
Entries after “also recorded” stand apart in the source; their conditions may differ. Where two headings read alike, the source gives them in different places.

Legend:
jack bean urease [1] = target: T1, jack bean urease (Canavalia ensiformis, UniProt P07374); test: Enzyme kinetic studies; type: biochemical; settings: for Vmax (app): at an inhibitor concentration of 20 μM; for mode of inhibition: urease, Lineweaver–Burk plots
jack bean urease [2] = target: T1, jack bean urease; test: Antiurease assay; type: biochemical; settings: for % inhibition (urease): inhibitor concentration not given

T1 sequence (P07374 whole entry, looked up): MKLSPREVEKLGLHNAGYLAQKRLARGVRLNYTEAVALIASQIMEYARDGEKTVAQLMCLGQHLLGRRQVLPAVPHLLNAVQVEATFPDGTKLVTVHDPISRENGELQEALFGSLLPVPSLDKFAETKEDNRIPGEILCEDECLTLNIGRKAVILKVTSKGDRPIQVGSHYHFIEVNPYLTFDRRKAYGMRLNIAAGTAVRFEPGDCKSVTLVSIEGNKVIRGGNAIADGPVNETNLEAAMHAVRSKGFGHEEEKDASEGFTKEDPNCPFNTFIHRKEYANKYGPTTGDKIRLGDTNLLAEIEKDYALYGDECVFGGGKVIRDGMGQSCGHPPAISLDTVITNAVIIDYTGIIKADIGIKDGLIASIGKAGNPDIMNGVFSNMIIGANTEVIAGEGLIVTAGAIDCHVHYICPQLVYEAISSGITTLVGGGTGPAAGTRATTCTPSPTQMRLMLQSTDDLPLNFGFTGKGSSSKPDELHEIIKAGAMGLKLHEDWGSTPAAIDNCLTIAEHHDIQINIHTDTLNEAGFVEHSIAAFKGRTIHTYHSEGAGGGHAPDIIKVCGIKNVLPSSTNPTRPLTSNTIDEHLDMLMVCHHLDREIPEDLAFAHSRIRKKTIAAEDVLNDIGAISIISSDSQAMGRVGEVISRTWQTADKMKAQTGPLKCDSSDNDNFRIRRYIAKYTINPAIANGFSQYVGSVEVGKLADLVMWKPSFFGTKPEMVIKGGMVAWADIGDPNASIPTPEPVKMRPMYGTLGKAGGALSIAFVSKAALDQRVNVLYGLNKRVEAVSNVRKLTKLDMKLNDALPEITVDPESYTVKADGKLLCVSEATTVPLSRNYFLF

| Vmax (app) (jack bean urease [1]) | mode of inhibition (jack bean urease [1]) | % inhibition (urease) (jack bean urease [2]; jack bean urease) | IC50 (jack bean urease [2]) | Ki (jack bean urease [1]) | Compound | Ki (jack bean urease [1]; read-out: Ki (inhibition constant), calculated from secondary Lineweaver–Burk plots) | IC50 (jack bean urease [2]; read-out: IC50 (μM), mean ± SEM, jack bean urease, mean ± SEM) |
| --- | --- | --- | --- | --- | --- | --- | --- |
|  |  | 77.3% | 33.34 ± 0.21 µM |  | Cc1cc(NS(=O)(=O)c2ccc(NC(=O)Cc3ccccc3Nc3c(Cl)cccc3Cl)cc2)no1 [conjugate 9, 2-(2-((2,6-Dichlorophenyl)amino)phenyl)-N-(4-(N-(5-methylisoxazol-3-yl)sulfamoyl)phenyl)acetamide] |  |  |
| 0.755 µM/min | mixed | 71.3% | 16.2 ± 0.21 µM | 16300 nM | O=C(Cc1ccccc1Nc1c(Cl)cccc1Cl)Nc1ccc(S(=O)(=O)Nc2nccs2)cc1 [conjugate 6, 2-(2-((2,6-Dichlorophenyl)amino)phenyl)-N-(4-(N-(thiazol-2-yl)sulfamoyl)phenyl)acetamide] |  |  |
| 6.36 µM/min | mixed | 84.9% | 7.92 ± 0.27 µM | 1040 nM | Cc1cccc(Nc2ccccc2C(=O)Nc2ccc(S(=O)(=O)Nc3ncccn3)cc2)c1C [conjugate 15, 2-((2,3-Dimethylphenyl)amino)-N-(4-(N-(pyrimidin-2-yl)sulfamoyl)phenyl)benzamide] |  |  |
|  |  | 68.3% | 94.99 ± 0.22 µM |  | Cc1ccnc(NS(=O)(=O)c2ccc(NC(=O)c3ccccc3Nc3cccc(C)c3C)cc2)n1 [conjugate 16, 2-((2,3-Dimethylphenyl)amino)-N-(4-(N-(4-methylpyrimidin-2-yl)sulfamoyl)phenyl)benzamide] |  |  |
|  |  | 79.2% | 31.32 ± 0.29 µM |  | Cc1cccc(Nc2ccccc2C(=O)Nc2ccc(S(=O)(=O)NC(=N)N)cc2)c1C [conjugate 19, N-(4-(N-Carbamimidoylsulfamoyl)phenyl)-2-((2,3-dimethylphenyl)amino)benzamide] |  |  |
| 2.27 µM/min | mixed | 85.9% | 9.5 ± 0.28 µM | 10800 nM | Cc1ccnc(NS(=O)(=O)c2ccc(NC(=O)Cc3ccccc3Nc3c(Cl)cccc3Cl)cc2)n1 [conjugate 8, 2-(2-((2,6-Dichlorophenyl)amino)phenyl)-N-(4-(N-(4-methylpyrimidin-2-yl)sulfamoyl)phenyl)acetamide] |  |  |
| 2.28 µM/min | mixed | 82.9% | 14.8 ± 0.27 µM | 1650 nM | Cc1cccc(Nc2ccccc2C(=O)Nc2ccc(S(=O)(=O)Nc3nccs3)cc2)c1C [conjugate 14, 2-((2,3-Dimethylphenyl)amino)-N-(4-(N-(thiazol-2-yl)sulfamoyl)phenyl)benzamide] |  |  |
|  |  | 64.1% | 36.08 ± 0.28 µM |  | CC(=O)NS(=O)(=O)c1ccc(NC(=O)c2ccccc2Nc2cccc(C)c2C)cc1 [conjugate 18, N-(4-(N-Acetylsulfamoyl)phenyl)-2-((2,3-dimethylphenyl)amino)benzamide] |  |  |
| 3.03 µM/min | mixed | 94.1% | 15.9 ± 0.25 µM | 4820 nM | Cc1cccc(Nc2ccccc2C(=O)Nc2ccc(S(=O)(=O)Nc3onc(C)c3C)cc2)c1C [conjugate 13, N-(4-(N-(3,4-Dimethylisoxazol-5-yl)sulfamoyl)phenyl)-2-((2,3-dimethylphenyl)amino)benzamide] |  |  |
|  |  | 73.4% | 23.1 ± 0.49 µM |  | Cc1noc(NS(=O)(=O)c2ccc(NC(=O)Cc3ccccc3Nc3c(Cl)cccc3Cl)cc2)c1C [conjugate 5, 2-(2-((2,6-Dichlorophenyl)amino)phenyl)-N-(4-(N-(3,4-dimethylisoxazol-5-yl)sulfamoyl)phenyl)acetamide] |  |  |
|  |  | 83.6% | 30.49 ± 0.28 µM |  | O=C(Cc1ccccc1Nc1c(Cl)cccc1Cl)Nc1ccc(S(=O)(=O)Nc2ncccn2)cc1 [conjugate 7, 2-(2-((2,6-Dichlorophenyl)amino)phenyl)-N-(4-(N-(pyrimidin-2-yl)sulfamoyl)phenyl)acetamid] |  |  |
| 1.11 µM/min | mixed | 78.7% | 4.35 ± 0.23 µM | 1090 nM | N=C(N)NS(=O)(=O)c1ccc(NC(=O)Cc2ccccc2Nc2c(Cl)cccc2Cl)cc1 [conjugate 11, N-(4-(N-Carbamimidoylsulfamoyl)phenyl)-2-(2-((2,6-dichlorophenyl)amino)phenyl)acetamide] |  |  |

| Compound | Vmax (app) (jack bean urease [1]) | mode of inhibition (jack bean urease [1]) | % inhibition (urease) (jack bean urease [2]; jack bean urease) | IC50 (jack bean urease [2]) | Ki (jack bean urease [1]) | Ki (jack bean urease [1]; read-out: Ki (inhibition constant), calculated from secondary Lineweaver–Burk plots) | IC50 (jack bean urease [2]; read-out: IC50 (μM), mean ± SEM, jack bean urease, mean ± SEM) |
| --- | --- | --- | --- | --- | --- | --- | --- |
| NC(N)=S [thiourea, reference compound] | 18.61 µM/min | competitive | 92.3% |  |  | 18200 nM | 22.6 ± 0.23 µM |
| CC(=O)NS(=O)(=O)c1ccc(NC(=O)Cc2ccccc2Nc2c(Cl)cccc2Cl)cc1 [conjugate 10, N-(4-(N-Acetylsulfamoyl)phenyl)-2-(2-((2,6-dichlorophenyl)amino)phenyl)acetamide] | 3.46 µM/min | competitively; also recorded: competitive | 84.5% | 5.49 ± 0.34 µM | 2730 nM |  |  |
| Cc1cc(NS(=O)(=O)c2ccc(NC(=O)c3ccccc3Nc3cccc(C)c3C)cc2)no1 [conjugate 17, 2-((2,3-Dimethylphenyl)amino)-N-(4-(N-(5-methylisoxazol-3-yl)sulfamoyl)phenyl)benzamide] | 8.54 µM/min | competitively; also recorded: competitive |  | 8.35 ± 0.26 µM | 460 nM |  |  |
| Cc1cccc(Nc2ccccc2C(=O)Nc2ccc(S(N)(=O)=O)cc2)c1C [conjugate 12, 2-((2,3-Dimethylphenyl)amino)-N-(4-sulfamoylphenyl)benzamide] | 8.62 µM/min | competitively; also recorded: competitive | 91.6% | 18.7 ± 0.21 µM | 3060 nM |  |  |
